The values below come from patent US8058258B2, “Methods for cancer therapy and stem cell modulation” (Agency for Science, Technology and Research, priority 2006, dated 2011).

For one data set, the system named is MCF-7 and HCT116 cells. Description: Mitochondrial membrane potential by JC-1 staining and flow cytometry. Type of data set: cell-based. Conditions: JC-1, flow cytometry. From the text: FIG. 3B depicts the detection of mitochondrial membrane potential of HCT116 cells by staining with the dye 5,5′,6,6′-tetrachloro-1,1′,3,3′-tetraethyl-benzamidazolocarbocyanin iodide (JC-1).
FIG. 3C compares the apoptosis in HCT116 cells (right hand side, data of FIG. 3B) to the apoptosis in MCF-7 cells (left hand side).
(§1) Cells were trypsinised and washed with PBS and fixed in 70% ethanol and processed for propidium iodide staining and FACS analysis. For the caspase 3 activity assay and mitochondrial membrane potential detection, cells were stained with anti-active caspase 3 and JC-1, respectively, according to the manufacturer's instructions (BD Bioscience).
To elucidate the mechanisms by which 3-deazaneplanocin induces cell death, flow cytometry was used to analyse the loss of mitochondrial membrane potential (ΔΨm) in MCF-7 and HCT116 cells after 3-deazaneplanocin treatment (FIGS. 3B & 3C).

The next data set relates to DNMT1 or DNMT3B. Description: Western blot of DNMT protein expression. The format is cell-based, human. Conditions: HCT116 or MCF-7 cells, 5 μM, 48 and 72 hours. The protocol:
Cell lines used in these examples were purchased from the American Type Culture Collection (Manassas, Va.). Cells were maintained in DMEM supplemented with 10% fetal bovine serum with glutamine, penicillin, and streptomycin. For drug treatment, cells were seeded the day before the drug treatment. Cells were treated with 5 μM 3-Deazaneplanocin A or 2 μM 5-aza-2'-deoxycytidine (5-AzaC; Sigma) for 72 hours and trichostatin A (TSA; Sigma) at 100 nM for 24 hours. For co-treatment of cells with 5-AzaC and TSA, 5-Aza was added for 48 hours and followed by TSA for 24 hours. Cell pellets were first lysed in RadioImmuno Precipitation Assay (RIPA) buffer, consisting of an aqueous solution of 25 mM Tris-HCl pH 7.6, 150 mM NaCl, 1% Nonidet-P 40 (NP-40), 1% sodium deoxycholate and 0.1% sodium dodecylsulfate (SDS), before further sonicated using a tissue homogeniser to release all the proteins. Equal amounts of protein were separated on SDS-polyacrylamide gels and transferred to polyvinylidene difluoride (PVDF) membranes. The blots were probed with antibodies against: EED (07-368), SUZ12 (07-379), SUV39H1 (07-550), BMI1 (05-637), tri-methylated H3-K27 (07-449), tri-methylated H3-K9 (07-442) and Acetyl-Histone H3 (06-599), and were purchased from Upstate. EZH2 (AC22) and Histone H3 (3H1) were from Cell Signaling. […]

For data set [1] the following is noted: explored for antiviral treatment; cited from earlier work.
A further data set deals with MCF-7 cells. Description: Cell death / apoptosis by PI staining and flow cytometry. Type of data set: cell-based, human. As to conditions: 5 μM; for cell death: PI staining and flow cytometry, cell line not named in the sentence (FIG. 3A). The protocol:
FIG. 3A depicts the detection of cell death of a variety of cancer cells upon exposure to 3-deazaneplanocin (DZNep) compared to untreated controls cells (DMSO=dimethyl sulfoxide). Breast cancer MCF-7 and MB-468 cells, colorectal HCT116, RKO and SW480 cells were treated with 5 μm 3-deazaneplanocin for 48 and 72 h, and cell death was detected by means of propodium iodide (PI) staining and flow cytometry analysis. Shown is the average of three independent experiments.
Cell lines used in these examples were purchased from the American Type Culture Collection (Manassas, Va.). Cells were maintained in DMEM supplemented with 10% fetal bovine serum with glutamine, penicillin, and streptomycin. For drug treatment, cells were seeded the day before the drug treatment. Cells were treated with 5 μM 3-Deazaneplanocin A or 2 μM 5-aza-2′-deoxycytidine (5-AzaC; Sigma) for 72 hours and trichostatin A (TSA; Sigma) at 100 nM for 24 hours. For co-treatment of cells with 5-AzaC and TSA, 5-Aza was added for 48 hours and followed by TSA for 24 hours.
as §1
It was observed that 3-deazaneplanocin at 5 μM could induce 25% cell death at 48 hours and 45% of cell death at 72 hours, as determined by propodium iodide (PI) staining and flow cytometry analysis (FIG. 3A).
To determine whether 3-deazaneplanocin preferentially induces apoptosis in cancer cells, the apoptosis induction between MCF-7 cells and the non-cancerous breast epithelial MCF10A cells was compared for various periods of time. […] In addition, normal primary colon epithelial CC33D cells, like MCF10A cells, were also resistant to 3-deazaneplanocin treatment compared to colorectal cancer HCT116 cell, as evaluated by microscopy examination (FIGS. 3G & 3H).

The structures appear in SMILES notation.

As for `Nc1nccc2c1ncn2C1C=C(CO)C(O)C1O` (stereo not drawn) [3-deazaneplanocin, 5-(4-amino-1H-imidazo[4,5-c]pyridin-1-yl)-3-(hydroxymethyl)-3-cyclopentene-1,2-diol], in the data set with MCF-7 and HCT116 cells, the “loss of mitochondrial membrane potential (ΔΨm)” value is “marked increase in the percentage of cells with lower ΔΨm”. In addition, the “DNMT1 or DNMT3B protein expression” value in the data set on DNMT1 or DNMT3B is reported as “did not cause a change”. In data set [1], the toxicity in vivo entry is on record as “minimal toxicity”. For the same compound, the cell death was 25% in the data set with MCF-7 cells (48 hours) and 45% in the data set with MCF-7 cells (72 hours). Moreover, the “apoptosis induction over various periods of time” value with MCF-7 cells (MCF-7 cells, FACS) is “progressive and marked apoptosis”.
